For 31 compounds, Ki and minimal effective dose results are on record in patent publication US7332504B2, “Heterocyclic substituted aminoazacycles useful as central nervous system agents” (Abbott Laboratories, priority 1999, dated 2008).

Where a name gives a salt, the structure may show the parent alone. Read-outs that look alike come from different tables or passages of the source.

As a reminder, the Ki is the equilibrium dissociation constant of an inhibitor or competing ligand from its target.

Assay [1] has as its target T1, neuronal nicotinic acetylcholine receptors (Rattus norvegicus, UniProt P09483+P12390).
T1 construct: crude synaptic membrane preparations from whole rat brain; from tissue; host or cells: whole rat brain, crude synaptic membranes
The experiment in a line: Binding of [3H]-cytisine to neuronal nicotinic acetylcholine receptors, crude synaptic membranes from whole rat brain. The protocol: The In Vitro protocols for determination of nicotinic acetylcholine channel receptor binding potencies of ligands were determined as follows.
Binding of [^3H]-cytisine ([^3 H]-CYT) to neuronal nicotinic acetylcholine receptors was accomplished using crude synaptic membrane preparations from whole rat brain (Pabreza et al., Molecular Pharmacol., 1990, 39:9). Washed membranes were stored at —80° C. prior to use. Frozen aliquots were slowly thawed and resuspended in 20 volumes of buffer (containing: 120 mM NaCl, 5 mM KCl, 2 mM MgCl2, 2 mM CaCl2 and 50 mM Tris-Cl, pH 7.4 @4° C.). After centrifuging at 20,000×g for 15 minutes, the pellets were resuspended in 30 volumes of buffer.
The test compounds were dissolved in water to make 10 mM stock solutions. Each solution was then diluted (1:100) with buffer (as above) and further taken through seven serial log dilutions of produce test solution from 10^−5 to 10^−11 M.
Homogenate (containing 125-150 μg protein) was added to triplicate tubes containing the range of concentrations of test compound described above and [^3H]-CYT (1.25 nM) in a final volume of 500 μL. Samples were incubated for 60 minutes at 4° C., then rapidly filtered through Whatman GF/B filters presoaked in 0.5% polyethyleneimine using 3×4 mL of ice-cold buffer. The filter are counted in 4 mL of Ecolume® (ICN). Nonspecific binding was determined in the presence of 10 μM (−)-nicotine and values were expressed as a percentage of total binding. IC50 values were determined with the RS-1 (BBN) nonlinear least squares curve-fitting program and IC50 values were converted to Ki values using the Cheng and Prusoff correction ([…].

Another assay relates to mouse hot plate paradigm. The assay can be described thus: Mouse hot plate paradigm (analgesia). It is filed as in vivo. The settings on record: ip, 0.5 h, mice, intraperitoneal, dosed 30 minutes prior to testing, hot plate 55° C., increase in tenth jump latency relative to control, read-out: minimally effective dose (MED). Here is the method:
An in vivo protocol was utilized to determine the effectiveness of nicotinic acetylcholine receptor ligands as analgesic agents in the mouse hot plate paradigm.
Separate groups of mice, (n=8/group) were utilized for each dose group. All drugs were administered by the intraperitoneal route of administration. Test drugs were dissolved in water to make a 6.2 mM stock solution. Animals were dosed with this solution (10 mL/kg body weight) for a 62 micromol/kg dose. Lower doses were administered similarly, following serial dilution of the stock solution in half-log increments. Animals were dosed 30 minutes prior to testing in the hot plate. The hot-plate utilized was an automated analgesia monitor (Model #AHP16AN, Omnitech Electronics, Inc. of Columbus, Ohio). The temperature of the hot plate was maintained at 55° C. and a cut-off time of 180 seconds was utilized. Latency until the tenth jump was recoreded as the dependent measure. An increase in the tenth jump latency relative to the control was considered an effect.

Where [2] appears, read: [3H]-cytisine 1.25 nM, whole rat brain membranes, 60 minutes at 4° C., Ki from IC50 by Cheng and Prusoff correction, read-out: Average Ki.

T1 sequence (P09483 31-630): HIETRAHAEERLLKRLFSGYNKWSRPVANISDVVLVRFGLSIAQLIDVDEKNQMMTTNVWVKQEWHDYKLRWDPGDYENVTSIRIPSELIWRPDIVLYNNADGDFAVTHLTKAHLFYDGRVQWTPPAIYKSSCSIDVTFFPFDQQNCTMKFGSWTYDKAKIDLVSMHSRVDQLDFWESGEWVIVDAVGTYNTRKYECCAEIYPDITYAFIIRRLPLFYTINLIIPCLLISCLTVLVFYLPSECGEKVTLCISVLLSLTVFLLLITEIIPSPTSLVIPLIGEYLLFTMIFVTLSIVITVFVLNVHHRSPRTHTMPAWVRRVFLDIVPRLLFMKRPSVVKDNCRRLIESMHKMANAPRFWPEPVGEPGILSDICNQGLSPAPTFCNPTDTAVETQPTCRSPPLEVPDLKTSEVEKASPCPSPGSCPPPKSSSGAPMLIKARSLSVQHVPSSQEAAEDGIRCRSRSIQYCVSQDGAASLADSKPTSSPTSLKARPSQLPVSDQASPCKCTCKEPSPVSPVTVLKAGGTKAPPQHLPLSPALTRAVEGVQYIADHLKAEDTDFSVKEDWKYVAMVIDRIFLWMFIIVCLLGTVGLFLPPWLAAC
T1 sequence (P12390 25-500): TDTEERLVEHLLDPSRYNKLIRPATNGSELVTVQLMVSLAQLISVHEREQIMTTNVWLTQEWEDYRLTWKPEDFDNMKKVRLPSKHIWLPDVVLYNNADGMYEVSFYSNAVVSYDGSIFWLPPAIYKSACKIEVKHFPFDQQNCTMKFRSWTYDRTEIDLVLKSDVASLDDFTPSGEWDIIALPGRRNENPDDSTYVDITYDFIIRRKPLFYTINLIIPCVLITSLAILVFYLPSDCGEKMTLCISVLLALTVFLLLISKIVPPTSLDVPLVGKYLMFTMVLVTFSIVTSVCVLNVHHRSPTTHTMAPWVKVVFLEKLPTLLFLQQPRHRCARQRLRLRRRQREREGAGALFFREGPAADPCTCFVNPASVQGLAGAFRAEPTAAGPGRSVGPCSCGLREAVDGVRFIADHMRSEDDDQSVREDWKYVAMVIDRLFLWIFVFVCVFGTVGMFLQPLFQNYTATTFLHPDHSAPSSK

The compound `C[C@H]1CCN(c2ccc(Cl)nc2)C[C@H]1N` (relative stereo) [Example 39, (cis) 1-(6-chloro-3-pyridinyl)-4-methyl-3-piperidinylamine hydrochloride] returned a Ki in assay [1] of 85 nM.

`C[C@@H]1CCN(c2ccc(Cl)nc2)C[C@H]1N` (relative stereo) [Example 40, (trans) 1-(6-chloro-3-pyridinyl)-4-methyl-3-piperidinylamine hydrochloride] had a Ki in assay [1] of 5.4 nM.

As to `CN[C@H]1CCN(c2ccc(Cl)nc2)C1` [Example 1, N-[(3S)-1-(6-chloro-3-pyridinyl)pyrrolidinyl]-N-methylamine hydrochloride], in the assay on mouse hot plate paradigm, the minimal effective dose came to 62 µmol/kg. Also, the affinity in assay [1] corresponds to a Ki of 44 nM.

Consider `N[C@H]1CCN(c2ccc(Cl)nc2)C1` [Example 2, (3S)-1-(6-chloro-3-pyridinyl)pyrrolidinylamine dihydrochloride], for which the minimal effective dose in the assay with mouse hot plate paradigm is 6.2 µmol/kg. The Ki in assay [1] came out at 0.1 nM.

For the compound `CN(C)[C@H]1CCN(c2ccc(Cl)nc2)C1` [Example 3, N-[(3S)-1-(6-chloro-3-pyridinyl)pyrrolidinyl]-N,N-dimethylamine 4-methylbenzenesulfonate], in the assay on mouse hot plate paradigm, the minimal effective dose came to 62 µmol/kg. In assay [1], this compound came in with a Ki of 61 nM.

As for `N[C@@H]1CCN(c2ccc(Cl)nc2)C1` [Example 4, (3R)-1-(6-chloro-3-pyridinyl)pyrrolidinylamine 4-methylbenzenesulfonate], the minimal effective dose in the assay on mouse hot plate paradigm was found to be 1.9 µmol/kg. In addition, in assay [1], the Ki is 0.22 nM.

Take `CN[C@@H]1CCN(c2ccc(Cl)nc2)C1` [Example 5, N-[(3R)-1-(6-chloro-3-pyridinyl)pyrrolidinyl]-N-methylamine hydrochloride]: in the assay with mouse hot plate paradigm, the minimal effective dose stood at 62 µmol/kg. Besides, in assay [1], the affinity, expressed as Ki, was 5.5 nM.

As to `CN(C)[C@@H]1CCN(c2ccc(Cl)nc2)C1` [Example 6, N-[(3R)-1-(6-chloro-3-pyridinyl)pyrrolidinyl]-N,N-dimethylamine 4-methylbenzenesulfonate], in assay [1], affinity was put at a Ki of 100 nM.

As to `NC1CCN(c2ccc(Cl)nc2)C1` (stereo not drawn) [Example 7, 1-(6-chloro-3-pyridinyl)-3-pyrrolidinylamine 4-methylbenzenesulfonate], the minimal effective dose in the assay on mouse hot plate paradigm was determined as 6.2 µmol/kg. Moreover, the affinity in assay [1], expressed as Ki, was 0.12 nM.

`N[C@H]1CCN(c2cccnc2)C1` [Example 8, (3S)-1-(3-pyridinyl)pyrrolidinylamine 4-methylbenzenesulfonate]: the minimal effective dose in the assay on mouse hot plate paradigm was found to be 19 µmol/kg. In assay [1], this compound yielded a Ki of 0.23 nM.

Consider `CN[C@H]1CCN(c2cccnc2)C1` [Example 9, N-methyl-N-[(3S)-1-(3-pyridinyl)pyrrolidinyl]amine dihydrochloride], for which the minimal effective dose in the assay with mouse hot plate paradigm was 62 µmol/kg. In assay [1], this compound registered an inhibition constant (Ki) of 2 nM.

With `NC1CCN(c2cccnc2)C1` (stereo not drawn) [Example 10, 1-(3-pyridinyl)-3-pyrrolidinylamine bis(4-methylbenzenesulfonate)], the affinity in assay [1], expressed as Ki, was 0.15 nM.

For the compound `N[C@@H]1CCN(c2cncc(C(F)(F)F)c2)C1` [Example 11, (3R)-1-[5-(trifluoromethyl)-3-pyridinyl]pyrrolidinylamine dihydrochloride], in assay [1], the Ki amounted to 3 nM.

For the compound `CN[C@@H]1CCN(c2cncc(C(F)(F)F)c2)C1` [Example 12, N-methyl-N-{(3R)-1-[5-(trifluoromethyl)-3-pyridinyl]pyrrolidinyl}amine hydrochloride], the Ki in assay [1] (setting [2]) stood at 114 nM.

For the compound `N[C@H]1CCN(c2cncc(C(F)(F)F)c2)C1` [Example 13, (3S)-1-[5-(trifluoromethyl)-3-pyridinyl]pyrrolidinylamine dihydrochloride], the affinity in assay [1] corresponds to a Ki of 1 nM.

In assay [1], `CN[C@H]1CCN(c2cncc(C(F)(F)F)c2)C1` [Example 14, N-methyl-N-{(3S)-1-[5-(trifluoromethyl)-3-pyridinyl]pyrrolidinyl}amine hydrochloride] registered a Ki of 6.3 nM.

Turning to `Cc1cc(N2CC[C@@H](N)C2)cnc1Cl` [Example 15, (3R)-1-(6-chloro-5-methyl-3-pyridinyl)pyrrolidinylamine hydrochloride], the minimal effective dose in the assay with mouse hot plate paradigm worked out at 6.2 µmol/kg. The compound also yielded a Ki in assay [1] of 0.03 nM.

As for `CN[C@@H]1CCN(c2cnc(Cl)c(C)c2)C1` [Example 16, N-[(3R)-1-(6-chloro-5-methyl-3-pyridinyl)pyrrolidinyl]-N-methylamine dihydrochloride], in the assay on mouse hot plate paradigm, the minimal effective dose was 1.9 µmol/kg. This compound showed a Ki in assay [1] of 5.1 nM.

In the case of `Cc1cc(N2CC[C@H](N)C2)cnc1Cl` [Example 17, (3S)-1-(6-chloro-5-methyl-3-pyridinyl)pyrrolidinylamine dihydrochloride], the minimal effective dose in the assay with mouse hot plate paradigm amounted to 6.2 µmol/kg. In assay [1], the Ki worked out at 0.03 nM.

`CN[C@H]1CCN(c2cnc(Cl)c(C)c2)C1` [Example 18, N-[(3S)-1-(6-chloro-5-methyl-3-pyridinyl)pyrrolidinyl]-N-methylamine dihydrochloride]: the minimal effective dose in the assay on mouse hot plate paradigm is 6.2 µmol/kg. Also, the affinity in assay [1] corresponds to a Ki of 0.58 nM.

For the compound `N[C@H]1CCN(c2cnc(Cl)c(Cl)c2)C1` [Example 19, (3S)-1-(5,6-dichloro-3-pyridinyl)pyrrolidinylamine dihydrochloride], the minimal effective dose with mouse hot plate paradigm turned out to be 6.2 µmol/kg. The affinity in assay [1] corresponds to a Ki of 0.05 nM.

In the case of `CN[C@H]1CCN(c2cnc(Cl)c(Cl)c2)C1` [Example 20, N-[(3S)-1-(5,6-dichloro-3-pyridinyl)pyrrolidinyl]-N-methylamine hydrochloride], in the assay on mouse hot plate paradigm, the minimal effective dose amounted to 19 µmol/kg. Besides, in assay [1], the Ki amounted to 0.59 nM.

In assay [1], `CN[C@H]1CCN(c2cnc(F)c(C)c2)C1` [Example 26, N-[(3S)-1-(6-fluoro-5-methyl-3-pyridinyl)pyrrolidinyl]-N-methylamine dihydrochloride] had a Ki of 1.5 nM.

`Cc1cc(N2CC[C@@H](N)C2)cnc1F` [Example 27, (3R)-1-(6-fluoro-5-methyl-3-pyridinyl)pyrrolidinylamine hydrochloride]: the Ki in assay [1] is 0.44 nM.

With `CN[C@@H]1CCN(c2cnc(F)c(C)c2)C1` [Example 28, N-[(3R)-1-(6-fluoro-5-methyl-3-pyridinyl)pyrrolidinyl]-N-methylamine dihydrochloride], in assay [1], the Ki stood at 39 nM.

`CN[C@H]1CCN(c2cncc([N+](=O)[O-])c2)C1` [Example 30, N-methyl-N-[(3S)-1-(5-nitro-3-pyridinyl)pyrrolidinyl]amine fumarate]: in assay [1], affinity was put at a Ki of 12 nM.

The compound `CN[C@@H]1CCN(c2cncc([N+](=O)[O-])c2)C1` [Example 32, N-methyl-N-[(3R)-1-(5-nitro-3-pyridinyl)pyrrolidinyl]amine fumarate] registered a Ki in assay [1] of 195 nM.

Consider `NC1CCN(c2ccc(Cl)nc2)CC1` [Example 37, 1-(6-chloro-3-pyridinyl)-4-piperidinylamine 4-methylbenzenesulfonate], for which the Ki in assay [1] (setting [2]) is 92 nM.

In assay [1], `CN[C@@H]1CCCN(c2cccnc2)C1` [Example 44, N-methyl-N-[(3R)-1-(3-pyridinyl)piperidinyl]amine dihydrochloride] yielded a Ki of 205 nM.

For `NC1CN(c2ccc(Cl)nc2)C1` [Example 50, 1-(6-chloro-3-pyridinyl)-3-azetidinylamine 4-methylbenzenesulfonate], in assay [1] (setting [2]), the Ki was 174 nM.

In assay [1], `N[C@@H]1CCN(c2cccnc2)[C@@H]1CCl` [Example 51, (2S,3R)-2-(chloromethyl)-1-(3-pyridinyl)pyrrolidinylamine dihydrochloride] showed a Ki of 714 nM.
